# Columns and labels:
# Test in all cases: combination Emax (second highest fraction inhibited in the dose matrix, 72 h); higher = more inhibition; extreme values may be limits of the assay
# 5637 (Bladder Carcinoma) = system: 5637 (Bladder Carcinoma)
# Procedure, shortened: (§1)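 Bliss excess equals the observed combination effect minus the expected value EA + EB − EA·EB, where EA and EB are the effects of each agent alone. Combination Emax is the second-highest inhibition within the matrix. Inhibition was scaled from CellTiter-Glo 2.0 luminescence, with 0 set by vehicle wells and 1 by blank wells, after 72 hours of two-drug dosing of cells plated in 1536-well plates.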
# A204 (Rhabdomyosarcoma) = system: A204 (Rhabdomyosarcoma)
# Procedure, shortened: as §1
# [1] = system: A253 (Head and Neck Carcinoma)
# Procedure, shortened: as §1
# [2] = system: A2780 (Ovarian Carcinoma)
# Procedure, shortened: as §1
# [3] = system: CAL-27 (Oral Cavity Carcinoma)
# Procedure, shortened: as §1
# [4] = system: CESS (Acute Myeloid Leukemia)
# Procedure, shortened: as §1
# [5] = system: DMS-53 (Small Cell Lung Carcinoma)
# Procedure, shortened: as §1
# [6] = system: DU-4475 (Breast Carcinoma)
# Procedure, shortened: as §1
# [7] = system: ESO26 (Esophageal Adenocarcinoma)
# Procedure, shortened: as §1
# EW-16 (Ewing's Sarcoma) = system: EW-16 (Ewing's Sarcoma)
# Procedure, shortened: as §1
# [8] = system: HT55 (Colorectal Carcinoma)
# Procedure, shortened: as §1
# IM-9 (Non-Cancerous) = system: IM-9 (Non-Cancerous)
# Procedure, shortened: as §1
# [9] = system: JHH-2 (Hepatocellular Carcinoma)
# Procedure, shortened: as §1
# [10] = system: JVM-2 (B-Cell Non-Hodgkin's Lymphoma)
# Procedure, shortened: as §1
# [11] = system: KYSE-220 (Esophageal Squamous Cell Carcinoma)
# Procedure, shortened: as §1
# [12] = system: LS-411N (Colorectal Carcinoma)
# Procedure, shortened: as §1
# [13] = system: MHH-ES-1 (Ewing's Sarcoma)
# Procedure, shortened: as §1
# [14] = system: NCI-H1651 (Lung Adenocarcinoma)
# Procedure, shortened: as §1
# [15] = system: NCI-H441 (Lung Adenocarcinoma)
# Procedure, shortened: as §1
# RH-41 (Rhabdomyosarcoma) = system: RH-41 (Rhabdomyosarcoma)
# Procedure, shortened: as §1
Structure (SMILES),combination Emax (5637 (Bladder Carcinoma)),combination Emax (A204 (Rhabdomyosarcoma)),combination Emax [1],combination Emax [2],combination Emax [3],combination Emax [4],combination Emax [5],combination Emax [6],combination Emax [7],combination Emax (EW-16 (Ewing's Sarcoma)),combination Emax [8],combination Emax (IM-9 (Non-Cancerous)),combination Emax [9],combination Emax [10],combination Emax [11],combination Emax [12],combination Emax [13],combination Emax [14],combination Emax [15],combination Emax (RH-41 (Rhabdomyosarcoma))
"COc1nnc2ccc(N3CCC(c4ccc(OCCN5CCN(C)C(=O)[C@H]5C)cc4)CC3)nn12 [AZD5153] + C=CCn1c(=O)c2cnc(Nc3ccc(N4CCN(C)CC4)cc3)nc2n1-c1cccc(C(C)(C)O)n1 [AZD1775] (first compound max 1 µM, partner max 1 µM)",0.944,0.471,0.356,0.844,0.63,0.941,0.51,1,0.757,0.679,0.81,0.975,0.553,0.897,0.804,0.889,0.764,0.822,0.436,0.996
"COc1nnc2ccc(N3CCC(c4ccc(OCCN5CCN(C)C(=O)[C@H]5C)cc4)CC3)nn12 [AZD5153] + CC1(C)CCC(CN2CCN(c3ccc(C(=O)NS(=O)(=O)c4ccc(NCC5CCOCC5)c([N+](=O)[O-])c4)c(Oc4cnc5[nH]ccc5c4)c3)CC2)=C(c2ccc(Cl)cc2)C1 [Venetoclax] (first compound max 1 µM, 7x7, partner max 1 µM)",0.477,0.416,0.22,0.736,0.504,0.638,0.887,0.8,0.648,0.464,0.513,0.859,0.357,0.739,0.617,0.728,0.682,0.257,0.381,0.909
"COc1nnc2ccc(N3CCC(c4ccc(OCCN5CCN(C)C(=O)[C@H]5C)cc4)CC3)nn12 [AZD5153] + CCN(CCO)CCCOc1ccc2c(Nc3cc(CC(=O)Nc4cccc(F)c4)[nH]n3)ncnc2c1 [AZD2811] (first compound max 1 µM, 7x7, partner max 1 µM)",0.68,0.466,0.444,0.783,0.646,0.648,0.593,0.944,0.752,0.553,0.619,0.897,0.416,0.729,0.677,0.739,0.762,0.499,0.381,0.888
"COc1nnc2ccc(N3CCC(c4ccc(OCCN5CCN(C)C(=O)[C@H]5C)cc4)CC3)nn12 [AZD5153] + C[C@@H]1COCCN1C2=NC(=NC(=C2)C3(CC3)[S@](=N)(=O)C)C4=C5C=CNC5=NC=C4 [AZD6738] (first compound max 1 µM, 7x7, partner max 10 µM)",0.823,0.573,0.736,0.848,0.659,0.905,0.58,1,0.84,0.747,0.748,0.963,0.711,0.825,0.863,0.947,0.812,0.767,0.562,0.99
"COc1nnc2ccc(N3CCC(c4ccc(OCCN5CCN(C)C(=O)[C@H]5C)cc4)CC3)nn12 [AZD5153] + Cc1c2c(nn1C)CSCc1cc(n(C)n1)CSc1cc(c3ccccc3c1)OCCCc1c(C(=O)O)n(C)c3c-2c(Cl)ccc13 [AZD5991] (first compound max 1 µM, 7x7, partner max 1 µM)",0.637,0.73,0.816,0.977,1,0.76,0.612,0.974,0.778,0.486,0.61,0.886,0.343,0.711,0.842,0.917,0.911,0.515,0.384,1
"COc1nnc2ccc(N3CCC(c4ccc(OCCN5CCN(C)C(=O)[C@H]5C)cc4)CC3)nn12 [AZD5153] + Cn1cnc2c(F)c(Nc3ccc(Br)cc3Cl)c(C(=O)NOCCO)cc21 [Selumetinib] (first compound max 1 µM, 7x7, partner max 10 µM)",0.81,0.484,0.456,0.823,0.795,0.606,0.426,1,0.709,0.506,0.857,0.952,0.427,0.702,0.808,0.997,0.707,0.138,0.453,0.92
"Cc1c2c(nn1C)CSCc1cc(n(C)n1)CSc1cc(c3ccccc3c1)OCCCc1c(C(=O)O)n(C)c3c-2c(Cl)ccc13 [AZD5991] + C1CN(CCC1(C(=O)N[C@@H](CCO)C2=CC=C(C=C2)Cl)N)C3=NC=NC4=C3C=CN4 [Capivasertib] (first compound max 1 µM, 7x7, partner max 3 µM)",0.174,0.689,0.92,0.838,0.996,0.566,0.442,0.24,0.405,0.195,0.269,0.756,0.604,0.801,0.252,0.362,0.591,0.254,0.237,1
"Cc1c2c(nn1C)CSCc1cc(n(C)n1)CSc1cc(c3ccccc3c1)OCCCc1c(C(=O)O)n(C)c3c-2c(Cl)ccc13 [AZD5991] + C=CCn1c(=O)c2cnc(Nc3ccc(N4CCN(C)CC4)cc3)nc2n1-c1cccc(C(C)(C)O)n1 [AZD1775] (first compound max 1 µM, partner max 1 µM)",0.954,0.829,0.904,0.858,0.972,0.967,0.684,0.977,0.683,0.507,0.715,0.986,0.58,0.966,0.848,0.741,0.87,0.813,0.471,1
"Cc1c2c(nn1C)CSCc1cc(n(C)n1)CSc1cc(c3ccccc3c1)OCCCc1c(C(=O)O)n(C)c3c-2c(Cl)ccc13 [AZD5991] + CC1(C)CCC(CN2CCN(c3ccc(C(=O)NS(=O)(=O)c4ccc(NCC5CCOCC5)c([N+](=O)[O-])c4)c(Oc4cnc5[nH]ccc5c4)c3)CC2)=C(c2ccc(Cl)cc2)C1 [Venetoclax] (first compound max 1 µM, 7x7, partner max 1 µM)",0.217,0.513,0.868,0.817,0.955,0.525,0.828,0.447,0.151,0.273,0.13,1,0.218,0.639,0.181,0.157,0.852,0.213,0.214,1
"Cc1c2c(nn1C)CSCc1cc(n(C)n1)CSc1cc(c3ccccc3c1)OCCCc1c(C(=O)O)n(C)c3c-2c(Cl)ccc13 [AZD5991] + CCN(CCO)CCCOc1ccc2c(Nc3cc(CC(=O)Nc4cccc(F)c4)[nH]n3)ncnc2c1 [AZD2811] (first compound max 1 µM, 7x7, partner max 1 µM)",0.91,0.688,0.896,0.802,0.974,0.578,0.56,0.378,0.319,0.808,0.553,1,0.325,0.772,0.308,0.178,0.883,0.356,0.31,1
"Cc1c2c(nn1C)CSCc1cc(n(C)n1)CSc1cc(c3ccccc3c1)OCCCc1c(C(=O)O)n(C)c3c-2c(Cl)ccc13 [AZD5991] + C[C@@H]1COCCN1C2=NC(=NC(=C2)C3(CC3)[S@](=N)(=O)C)C4=C5C=CNC5=NC=C4 [AZD6738] (first compound max 1 µM, 7x7, partner max 10 µM)",0.787,0.773,0.976,0.922,1,0.958,0.616,0.978,0.544,0.756,0.503,1,0.703,0.912,0.877,0.772,0.837,0.714,0.39,1
"Cc1c2c(nn1C)CSCc1cc(n(C)n1)CSc1cc(c3ccccc3c1)OCCCc1c(C(=O)O)n(C)c3c-2c(Cl)ccc13 [AZD5991] + C[C@@H](Nc1cc(F)cc(F)c1)c1cc(C(=O)N(C)C)cc2c(=O)cc(N3CCOCC3)oc12 [AZD8186] (first compound max 1 µM, 7x7, partner max 3 µM)",0.25,0.785,0.777,0.835,0.936,0.554,0.398,0.117,0.284,0.281,0.272,0.671,0.768,0.712,0.177,0.178,0.665,0.155,0.34,0.99

# — the supplement of paper PMC11061612
